Test results: patent US20230193181A1, “3D Tissue Printing” (Oxford University Innovation Limited, priority 2020, published 2023)
Entries after “also recorded” stand apart in the source; their conditions may differ.

Assays:
iPSCs derived NPCs = assay: Oil toxicity test using iPSCs derived NPCs; type: cell-based; details: oil on top of medium of 2D cultured NPCs, 5 days; live (CAM)/dead (PI) staining on day 5
Description: 2D cultured NPCs were added with oil on top of medium and cultured for 5 days. Life (CAM, in green) and Dead (PI, in read) staining were conducted on day 5.
Bioreactors have been used in macro-scale to support biological active environment. However, nanoliter-sized bioreactors would offer the potential to study biological events with much small number of cells, and the potential application in high throughput assays. We firstly optimised the oil surrounding the nano-bioreactors, which plays a large role in the viability of the encapsulated neural tissues. […] The optimised conditions allow the growth of individual low-nanoliter sized neural tissue inside each nano-bioreactor, without interaction with cells in other nano-bioreactors. With differentiation medium, neural process outgrowth and neural migration were observed and assessed in nano-bioreactors. This technique have the potential for a low-cost HTS, as minimal cells and reagents are required. It also offers the potential application to study biological events where a small organised cluster of cells were involved, such as early stage embryogenesis and tumorigenesis.

RFP-hNSCs = assay: Toxicity test of DPhPC on hNSCs; type: cell-based, human; details: DPhPC at 100 μg/mL or 400 μg/mL in neural maintenance medium; three days of culture
Description: RFP-hNSCs were cultured in neural maintenance medium containing no lipid (control) or DPhPC at either 100 μg/mL or 400 μg/mL. Arrows indicate the formation of neural rosette-like structures under all conditions after three days of culture.

[1] = reported in clinic; cited from earlier work
[2] = system: printed neural tissue arrays (astrocytes and RFP-NPCs in Matrigel); assay: Neurotoxicity test using printed neural tissue arrays
Description: FIG. 20a, The experimental process of drug testing using printed neural tissue arrays. From left to right: 2D cultured astrocytes and RFP-NPCs were harvested and added to Matrigel for the preparation of bio-ink with a cell density ratio of 3:1 (astrocytes vs RFP-NPCs) and total cell density of 4×10^7 mL^−1. The prepared bio-ink were printed into droplet arrays with individual droplet size around 100 μm. On the next day, cancer chemotherapy drugs were added to the culture medium. The neurotoxicity of the drugs were assessed after a further 24 hrs. FIG. 20b, Fluorescent images of neural tissues treated with DMSO (control) and cancer chemotherapy drugs with different reported neurotoxicity risks: 5-Fluorouracil (minor), Carboplatin (moderate), Taxol (high). […] FIG. 20c, Comparison of the neurotoxicity of different chemotherapy drugs.
Neurotoxicity of cancer chemotherapy drugs occurs frequently in clinic and often limit the dose of chemotherapy. We tested three chemotherapy drugs that are reported in clinic with low, moderate and high risks of neurotoxicity, using printed droplet arrays containing neural tissues (astrocytes and NSCs in Matrigel).

printed neural tissues = assay: Fluo-4 calcium imaging of printed neural tissues after KCl stimulation; type: cell-based, human; details: KCl 60 mM, 65 days ppd
Description: FIG. 3d-f show spontaneous calcium oscillations (FIG. 3d), single-cell traces (FIG. 3e) and correlation coefficient analysis (FIG. 3f) of printed neural tissues at 44 days ppd. The data reveal increased neural communication after a longer period of differentiation. […] Intensities are false-coloured according to the ‘fire’ Look Up Table of Fiji. […] Images are false-coloured as in FIG. 3g. Scale bars are all 100 μm.
Calcium imaging and correlation analysis. A Fluo-4 Direct™ calcium assay kit (F10471, Invitrogen) was used according to the manufacturer's instructions to measure calcium activities. Briefly, printed neural tissues were transferred to 48-well plates and incubated with NMM/Fluo-4 calcium imaging reagents (v:v, 1:1) for 1 h at 37° C. Both spontaneous and evoked calcium recordings were recorded at 37° C. by fluorescence confocal microscopy (Leica SP5) at 1 frame per 2 seconds for FIG. 3a, 1 frame per 15 seconds FIG. 3d and 1 frame per 1 second for FIG. 3g. Pre-processing and analysis of time-lapse calcium recordings were performed in MATLAB. […] Individual neuronal somata were manually selected as ROIs, and the pixel mask in the local area was refined using ICA-based de-mixing of fluorescent transients. ΔF/F0 at time t was calculated with a moving baseline as: […]

[3] = system: Astrocytes in droplet arrays; assay: Fluo-4 calcium live imaging of astrocytes in droplet arrays after KCl stimulation; type: cell-based, human; details: KCl 60 mM
Description: FIG. 19a, human primary cortical astrocyte printed in an array. Astrocytes were printed at a cell density of 4×10^7 mL^−1 in Matrigel. Left: Calcein AM (CAM) staining of printed astrocytes at 2 days post printing. The dashed box indicates the area of the higher magnification image on the right (top two images in the middle). Top right row: higher magnification images of astrocyte printed in Matrigel (CAM staining image and the corresponding brightfield image) and image of astrocytes (brightfield with CAM staining) printed in agarose as the matrix. Bottom right row: immunostaining images of printed astrocytes with astrocyte markers vimentin (yellow) and GFAP (magenta). FIG. 19b, Spontaneous calcium fluctuations of astrocytes in printed droplet arrays. Left: Individual time-point frames of Fluo-4 calcium live imaging. Right: single-cell traces of the cells indicated by the colour-coded circles in the images (left panel). […] Proportions of astrocytes with spontaneous calcium fluctuations were measured at four conditions: 2D monolayer cell culture, and printed astrocyte, astrocyte-NPC, and astrocyte-MDA (a metastatic breast cancer cell line) droplet arrays. n>20 for all four conditions. *: P<0.05, **: P<0.01, ***: P<0.001 and ****: P<0.0001. […]

CCCCCCCC/C=C\CCCCCCCC(=O)OCC(COC(=O)CCCCCCC/C=C\CCCCCCCC)OC(=O)CCCCCCC/C=C\CCCCCCCC [glyceryl trioleate]
oil toxicity to NPCs (iPSCs derived NPCs): not toxic

CC(C)CCCC(C)CCCC(C)CCCC(C)CC(=O)OC[C@H](COP(=O)([O-])OCC[N+](C)(C)C)OC(=O)CC(C)CCCC(C)CCCC(C)CCCC(C)C (stereo partly drawn) [DPhPC, 1,2-diphytanoyl-sn-glycero-3-phosphocholine]
toxicity of DPhPC on hNSCs (neural rosette-like structure formation vs no-lipid control) (RFP-hNSCs): No obvious differences

O=c1[nH]cc(F)c(=O)[nH]1 [5-Fluorouracil]
reported neurotoxicity risk [1]: minor

N.N.O=C([O-])C1(C(=O)[O-])CCC1.[Pt+2] [Carboplatin]
reported neurotoxicity risk [1]: moderate | neurotoxicity against neural cells in printed neural tissue arrays ([2]; drugs added to culture medium the day after printing, assessed after a further 24 hrs, astrocytes:RFP-NPCs 3:1, n>25, P<0.05): higher toxicity against neural cells compared to 5-Fluorouracil

CC(=O)O[C@H]1C(=O)[C@@]2(C)[C@H]([C@H](OC(=O)c3ccccc3)[C@]3(O)C[C@H](OC(=O)[C@H](O)[C@@H](NC(=O)c4ccccc4)c4ccccc4)C(C)=C1C3(C)C)[C@]1(OC(C)=O)CO[C@@H]1C[C@@H]2O [Taxol]
reported neurotoxicity risk [1]: high | neurotoxicity against neural cells in printed neural tissue arrays ([2]; human, 24 h): higher toxicity against neural cells compared to 5-Fluorouracil

[Cl-].[K+] [KCl]
calcium response of printed neural tissues to KCl (printed neural tissues): induced a rapid calcium transient in a cell; also recorded: evoked rapid Ca^2+ transients | calcium response of astrocytes in droplet arrays to KCl stimulation [3]: responsive
